{"source": "patent US5082772A", "about": "“Process for preparing deacetylcephalosporin C” (priority 1988, dated 1992)", "type_in_all_cases": "biochemical", "key": {"DAOC synthase [1]": {"target": "T1, DAOC synthase (Streptomyces clavuligerus, UniProt P18548)", "T1 sequence (P18548 whole entry)": "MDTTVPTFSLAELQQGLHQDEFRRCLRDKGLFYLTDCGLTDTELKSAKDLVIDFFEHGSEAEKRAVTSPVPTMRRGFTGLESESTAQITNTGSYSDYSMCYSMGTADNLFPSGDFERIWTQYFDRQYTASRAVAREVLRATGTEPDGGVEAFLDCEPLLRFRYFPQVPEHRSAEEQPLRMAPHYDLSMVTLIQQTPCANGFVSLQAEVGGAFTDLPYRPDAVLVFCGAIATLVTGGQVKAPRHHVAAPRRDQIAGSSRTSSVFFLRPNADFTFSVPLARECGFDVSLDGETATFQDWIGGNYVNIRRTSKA", "assay": "DAOC synthase activity assay: effect of metal chelators, sulfhydryl reagents and other inhibitors", "method": "^1 Enzymatic reactions were conducted in the presence of […]\nFeSO4 and 0.1 mM DTT. The enzyme was incubated with the indicated\ninhibitor for 1 min prior to the initiation of the reaction with\n(§1) The enzymatic reaction was initiated by addition of penicillin N and was conducted for 15 min at 36° C. The synthase activity was determined by monitoring DAOC formation at 260 nm with HPLC as described by Dotzlaf, J. E., and Yeh, W. K (1987), J. Bacteriol 169, 1611-1618."}, "DAOC synthase [2]": {"target": "T1, DAOC synthase", "assay": "Cofactor and metal ion requirement and stimulation of DAOC synthase activity", "method": "as §1"}, "purified synthase [3]": {"target": "T2, purified synthase (Streptomyces clavuligerus, UniProt P18548)", "T2 sequence (P18548 whole entry)": "as above", "assay": "Hydroxylase activity (conversion to DAC)"}, "DAOC synthase [4]": {"target": "T1, DAOC synthase", "assay": "Substrate specificity of DAOC synthase (HPLC detection)", "details": "optimum conditions for converting penicillin N to DAOC; HPLC detectable"}, "native synthase": {"target": "T3, native synthase (Streptomyces clavuligerus, UniProt P18548)", "T3 construct": "native synthase, evaluated with the partially purified enzyme; endogenous in cells; host or cells: Streptomyces clavuligerus cells, crude extract, three-step purification (Mono Q eluate)", "T3 sequence (P18548 whole entry)": "as above", "assay": "Kinetics of native synthase, partially purified (Mono Q eluate)", "details": "native partially purified enzyme; Tris-HCl buffer, 36° C."}, "[5]": {"target": "T4, recombinantly produced DAOC synthase (Streptomyces clavuligerus, UniProt P18548)", "T4 construct": "made in house; host or cells: Escherichia coli K12 JM109 (plasmid pOW382)", "T4 sequence (P18548 whole entry)": "as above", "assay": "Kinetics of recombinant enzyme (Lineweaver-Burk)", "details": "pH 7.0, 50 mM HEPES buffer, 36° C.", "method": "The kinetics of the native enzyme and recombinant enzyme were determined under the optimal reaction conditions for the enzyme, i.e., at pH 7.0 in 50 mM HEPES buffer at 36° C."}, "purified synthase [6]": {"target": "T2, purified synthase", "assay": "Stoichiometric analysis of conversion of penicillin N to DAOC", "details": "over 60 min of the reaction", "method": "In the conversion of penicillin N to DAOC by the purified synthase provided herein, the molar ratio for DAOC formation/penicillin N disappearance over 60 min of the reaction remained in the range of 0.90-0.98 as shown in FIG. 5. The conversion of penicillin N to DAOC was 94% complete under the reaction conditions."}, "[7]": {"details": "metal ions: order Zn2+ > Co2+ > Ni2+"}, "[8]": {"details": "additive 0.1 mM, 0.06 mN FeSO4, 0.1 mM DTT, 1 min incubation with inhibitor before penicillin N"}, "[9]": {"details": "additive 1.0 mM, 0.06 mN FeSO4, 0.1 mM DTT, 1 min incubation with inhibitor before penicillin N"}}, "note": "“And” between values parts separate entries of the source, which are not always exact repeats. Equal values may be shown once. Read-outs that look alike come from different tables or passages of the source."}
{"smiles": "O[C@H](CS)[C@H](O)CS", "note": "(racemic) [DTT, dithiothreitol]", "values": [{"measurement": "restoration of synthase activity after DTNB inactivation", "setting": "DAOC synthase [1]; 2 mM DTT added, 30 min", "value": "fully restored"}, {"measurement": "stimulation of DAOC synthase activity", "setting": "DAOC synthase [2]", "value": "stimulated"}]}
{"smiles": "C=C1CS[C@@H]2[C@H](NC(=O)CCCC(N)C(=O)O)C(=O)N2C1C(=O)O", "note": "(stereo partly drawn) [3-exomethylenecephalosporin C, 7β-(α-aminoadipamido)-3-exomethylenecepham-4-carboxylic acid]", "values": [{"measurement": "inhibition of DAOC synthase activity (in words)", "setting": "DAOC synthase [1]; [7]", "value": "strong inhibitor"}, {"measurement": "conversion to DAC by the purified synthase", "setting": "purified synthase [3]", "value": "possesses the ability to convert 3-exomethylenecephalosporin C to DAC"}]}
{"smiles": "CC1(C)S[C@@H]2[C@H](N)C(=O)N2[C@H]1C(=O)O", "note": "[6-aminopenicillanic acid]", "values": [{"measurement": "synthase activity with the compound as substrate", "setting": "DAOC synthase [4]", "value": "No synthase activity was observed"}]}
{"smiles": "Nc1ncnc2c1ncn2[C@@H]1O[C@H](COP(=O)(O)OP(=O)(O)OP(=O)(O)O)[C@@H](O)[C@H]1O", "note": "[ATP, adenosine triphosphate]", "values": [{"measurement": "stimulation of DAOC synthase activity", "setting": "DAOC synthase [2]", "value": "No detectable stimulation"}]}
{"smiles": "CC1=C(C(=O)O)N2C(=O)[C@@H](NC(=O)CCC[C@@H](N)C(=O)O)[C@H]2SC1", "note": "[DAOC, deacetoxycephalosporin C]", "values": [{"measurement": "conversion to DAC by the purified synthase", "setting": "purified synthase [3]", "value": "lacks the hydroxylase activity for converting DAOC to DAC"}]}
{"smiles": "O=C(O)c1cc(SSc2ccc([N+](=O)[O-])c(C(=O)O)c2)ccc1[N+](=O)[O-]", "note": "[DTNB, 5,5'-dithiobis-2-nitrobenzoic acid]", "values": [{"measurement": "inactivation of the enzyme", "setting": "DAOC synthase [1]; 0.2 mM DTNB, 0.5 min, 4° C.", "value": "complete inactivation"}, {"measurement": "Relative Activity (%)", "setting": "DAOC synthase [1]; [8]", "value": 70, "unit": "%"}, {"measurement": "Relative Activity (%)", "setting": "DAOC synthase [1]; [9]", "value": 0, "unit": "%"}, {"measurement": "inhibition of DAOC synthase activity (in words)", "setting": "DAOC synthase [1]; [7]", "value": "highly susceptible to inhibition"}]}
{"smiles": "O=C(O)CN(CCN(CC(=O)O)CC(=O)O)CC(=O)O", "note": "[EDTA, ethylenediamine tetraacetic acid]", "values": [{"measurement": "inhibition of DAOC synthase activity (in words)", "setting": "DAOC synthase [1]", "value": "highly sensitive to inhibition"}]}
{"smiles": "[Fe+3]", "note": "[Ferric ion]", "values": [{"measurement": "replacement of ferrous ion for expression of enzyme activity", "setting": "DAOC synthase [2]; in the presence of DTT and ascorbate, enzyme slightly less active", "value": "can substitute for ferrous ion"}]}
{"smiles": "O=C(O)CI", "note": "[Iodoacetic acid, iodoacetic acid]", "values": [{"measurement": "Relative Activity (%)", "setting": "DAOC synthase [1]", "value": "100% and 65%"}, {"measurement": "inhibition of DAOC synthase activity (in words)", "setting": "DAOC synthase [1]", "value": "slightly inhibited"}]}
{"smiles": "CCN1C(=O)C=CC1=O", "note": "[NEM, N-ethylmaleimide]", "values": [{"measurement": "Relative Activity (%)", "setting": "DAOC synthase [1]; [8]", "value": 55, "unit": "%"}, {"measurement": "Relative Activity (%)", "setting": "DAOC synthase [1]; [9]", "value": 0, "unit": "%"}, {"measurement": "inhibition of DAOC synthase activity (in words)", "setting": "DAOC synthase [1]; [7]", "value": "highly susceptible to inhibition"}]}
{"smiles": "CC1(C)S[C@@H]2[C@H](NC(=O)[C@H](N)c3ccccc3)C(=O)N2[C@H]1C(=O)O", "note": "[ampicillin]", "values": [{"measurement": "synthase activity with the compound as substrate", "setting": "DAOC synthase [4]", "value": "No synthase activity was observed"}]}
{"smiles": "[Ca]", "note": "[calcium]", "values": [{"measurement": "replacement of ferrous ion for expression of enzyme activity", "setting": "DAOC synthase [2]", "value": "could not be replaced"}]}
{"smiles": "[Co+2]", "note": "[cobaltous]", "values": [{"measurement": "inhibition of DAOC synthase activity (in words)", "setting": "DAOC synthase [1]; [7]", "value": "inhibited"}, {"measurement": "replacement of ferrous ion for expression of enzyme activity", "setting": "DAOC synthase [2]", "value": "could not be replaced"}]}
{"smiles": "[Cu+]", "note": "[cuprous]", "values": [{"measurement": "replacement of ferrous ion for expression of enzyme activity", "setting": "DAOC synthase [2]", "value": "could not be replaced"}]}
{"smiles": "[Fe+2]", "note": "[ferrous ion]", "values": [{"measurement": "Ka", "setting": "native synthase", "value": 4, "unit": "µM"}, {"measurement": "requirement for expression of catalytic activity", "setting": "DAOC synthase [2]", "value": "requires"}, {"measurement": "Ka", "setting": "[5]", "value": 8, "unit": "µM"}]}
{"smiles": "CC1(C)S[C@@H]2[C@H](NC(=O)CCC[C@H](N)C(=O)O)C(=O)N2[C@H]1C(=O)O", "note": "[isopenicillin N]", "values": [{"measurement": "synthase activity with the compound as substrate", "setting": "DAOC synthase [4]", "value": "No synthase activity was observed"}]}
{"smiles": "[Mg]", "note": "[magnesium]", "values": [{"measurement": "replacement of ferrous ion for expression of enzyme activity", "setting": "DAOC synthase [2]", "value": "could not be replaced"}]}
{"smiles": "[Mn+2]", "note": "[manganous]", "values": [{"measurement": "replacement of ferrous ion for expression of enzyme activity", "setting": "DAOC synthase [2]", "value": "could not be replaced"}]}
{"smiles": "[Ni+2]", "note": "[nickel]", "values": [{"measurement": "inhibition of DAOC synthase activity (in words)", "setting": "DAOC synthase [1]; [7]", "value": "inhibited"}, {"measurement": "replacement of ferrous ion for expression of enzyme activity", "setting": "DAOC synthase [2]", "value": "could not be replaced"}]}
{"smiles": "c1cnc2c(c1)ccc1cccnc12", "note": "[o-Phenanthroline, 1,10-phenanthroline]", "values": [{"measurement": "Relative Activity (%)", "setting": "DAOC synthase [1]; additive 0.02 mM, 0.06 mN FeSO4, 0.1 mM DTT, 1 min incubation with inhibitor before penicillin N", "value": 63, "unit": "%"}, {"measurement": "Relative Activity (%)", "setting": "DAOC synthase [1]; additive 0.2 mM, 0.06 mN FeSO4, 0.1 mM DTT, 1 min incubation with inhibitor before penicillin N", "value": 0, "unit": "%"}, {"measurement": "inhibition of DAOC synthase activity (in words)", "setting": "DAOC synthase [1]; [7]", "value": "highly sensitive to inhibition"}]}
{"smiles": "O=O", "note": "[oxygen]", "values": [{"measurement": "requirement for expression of catalytic activity", "setting": "DAOC synthase [2]", "value": "requires"}]}
{"smiles": "O=C(O)c1cc[c]([Hg+])cc1.[OH-]", "note": "[p-HMB, p-hydroxymercuribenzoate]", "values": [{"measurement": "Relative Activity (%)", "setting": "DAOC synthase [1]; [8]", "value": 0, "unit": "%"}, {"measurement": "Relative Activity (%)", "setting": "DAOC synthase [1]; [9]", "value": 0, "unit": "%"}, {"measurement": "inhibition of DAOC synthase activity (in words)", "setting": "DAOC synthase [1]; [7]", "value": "highly susceptible to inhibition"}]}
{"smiles": "CC1(C)S[C@@H]2[C@H](NC(=O)Cc3ccccc3)C(=O)N2[C@H]1C(=O)O", "note": "[penicillin G]", "values": [{"measurement": "synthase activity with the compound as substrate", "setting": "DAOC synthase [4]", "value": "No synthase activity was observed"}]}
{"smiles": "CC1(C)S[C@@H]2[C@H](NC(=O)CCC[C@@H](N)C(=O)O)C(=O)N2[C@H]1C(=O)O", "note": "[penicillin N]", "values": [{"measurement": "molar ratio for DAOC formation/penicillin N disappearance", "setting": "purified synthase [6]", "value": "0.90-0.98"}]}
{"smiles": "CC1(C)S[C@@H]2[C@H](NC(=O)COc3ccccc3)C(=O)N2[C@H]1C(=O)O", "note": "[penicillin V]", "values": [{"measurement": "synthase activity with the compound as substrate", "setting": "DAOC synthase [4]", "value": "No synthase activity was observed"}]}
{"smiles": "[K+]", "note": "[potassium]", "values": [{"measurement": "replacement of ferrous ion for expression of enzyme activity", "setting": "DAOC synthase [2]", "value": "could not be replaced"}]}
{"smiles": "[Na+]", "note": "[sodium]", "values": [{"measurement": "replacement of ferrous ion for expression of enzyme activity", "setting": "DAOC synthase [2]", "value": "could not be replaced"}]}
{"smiles": "[Zn+2]", "note": "[zinc]", "values": [{"measurement": "inhibition of DAOC synthase activity (in words)", "setting": "DAOC synthase [1]; [7]", "value": "inhibited"}, {"measurement": "replacement of ferrous ion for expression of enzyme activity", "setting": "DAOC synthase [2]", "value": "could not be replaced"}]}
